In series [1] the target is C. albicans cytoplasmic tryptophanyl-tRNA synthetase (recombinant, thrombin-cleaved GST fusion from pC3 822) (Candida albicans, UniProt Q5A3P4). As to the kind of experiment: Aminoacylation (charging) assay, Km determination with purified recombinant TrpRS. It is filed as biochemical. Conditions: read-out: Km for tryptophan; recombinant enzyme; crude yeast tRNA; 1 to 40 μM [3H]tryptophan; 25° C. On the procedure:
(§1) The purified recombinant protein obtained after thrombin cleavage of the GST-fusion protein produced by JM109/pC^3 822 was used for further kinetic studies. Charging assays were based on the procedure of Shepard et al. (Proc. Natl. Acad. Sci. USA 89:9964-68 (1992)). Unless otherwise stated, a typical 50 μl reaction, carried out at 25° C., contained 1 mM ATP, 1 μM of [^3 H]Tryptophan (22.2 Ci/mmol), 90 μM crude tRNA from brewer's yeast (Boehringer Mannheim), 10 mM KF, 30 mM HEPES, 30 mM KCl pH 7.5, 5 mM MgCl2, and 10 mM DTT. Purified enzyme was diluted in 100 mM HEPES, pH 7.5, 20 mM DTT and 0.1 mg/ml BSA.
(§2) Reactions were started by the addition of enzyme to the reaction mixture preincubated at 25° C., with […] protein in the assay. At various time intervals, 10 μl of the reaction mix was quenched in a 96-well filter plate (Millipore, cat# MAFBNOB50) prefilled with 100 μl of cold 5% TCA. The liquid in the filter plate was drained by applying vacuum suction on the manifold. The plate was subsequently washed 2 times with 200 μl 5% TCA, 2 times with 100 μl double distilled H2 O with continuous vacuum suction, and once with 100 μl 95% EtOH. The plate was heat-dried under vacuum, 100 μl Microscint was added to each well, and the aminoacylated tRNA was quantitated by scintillation counting in a Topcount (Packard) scintillation counter. […]

The test system of series [2] is Nc1ncnc2c1ncn2[C@@H]1O[C@H](COP(=O)(O)OP(=O)(O)OP(=O)(O)O)[C@@H](O)[C@H]1O. The series is described as above. Conditions: other: recombinant enzyme, ATP concentration range 0.19 to 6 mM, 25° C., pH 7.5. It is filed as biochemical, Candida albicans. On the procedure:
as §1, §2

The term Km denotes the concentration of substrate that gives half-maximal velocity.

C. albicans cytoplasmic tryptophanyl-tRNA synthetase (recombinant, thrombin-cleaved GST fusion from pC3 822), sequence (Q5A3P4 whole entry S271A, the tested form may be a part): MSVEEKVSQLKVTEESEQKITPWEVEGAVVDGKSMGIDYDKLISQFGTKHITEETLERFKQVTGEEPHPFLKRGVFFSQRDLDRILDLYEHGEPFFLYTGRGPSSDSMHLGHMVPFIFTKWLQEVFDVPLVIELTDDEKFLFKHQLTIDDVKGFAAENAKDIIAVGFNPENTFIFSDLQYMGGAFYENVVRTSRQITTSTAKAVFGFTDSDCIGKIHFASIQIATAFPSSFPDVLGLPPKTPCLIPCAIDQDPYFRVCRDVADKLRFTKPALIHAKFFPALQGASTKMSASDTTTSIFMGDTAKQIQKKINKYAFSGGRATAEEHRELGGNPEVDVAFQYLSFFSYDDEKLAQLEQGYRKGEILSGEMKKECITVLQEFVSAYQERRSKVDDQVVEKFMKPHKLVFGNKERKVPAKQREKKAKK

In the case of `N[C@@H](Cc1c[nH]c2ccccc12)C(=O)O` [tryptophan], in series [1], the Km is 3 to 4 µM. With “C. albicans cytoplasmic tryptophanyl-tRNA synthetase (recombinant, thrombin-cleaved GST fusion from pC3 822) (Candida albicans SC5314)”, in series [2], the Km came out at 1.1 mM.

The values above are taken from patent publication US6174713A, “Candida cytoplasmic tryptophanyl-tRNA synthetase proteins, nucleic acids and strains comprising same” (Cubist Pharmaceuticals, Inc., priority 1997, dated 2001).
